Measured values from patent US7666391B2, “Breast homing peptides and methods of identifying same using aminopeptidase P” (Burnham Institute for Medical Research, priority 2001, dated 2010).
Square brackets hold non-standard residues; d marks the D form. Ends that are not written are not given here. Peptide text beside a SMILES is read from it. * marks the point of attachment. X1 = NC(Cc1ccccc1)C(O)C(=O)*; βAla = NCCC(=O)O

Columns and labels:
[1] = biological target: human membrane-bound aminopeptidase P (Homo sapiens, UniProt O43895); settings: 0.5 mM arg = Pro-Pro in 0.1 M Hepes, pH 8.0; triplicate; cited from earlier work
human membrane-bound aminopeptidase P, sequence (O43895 22-649): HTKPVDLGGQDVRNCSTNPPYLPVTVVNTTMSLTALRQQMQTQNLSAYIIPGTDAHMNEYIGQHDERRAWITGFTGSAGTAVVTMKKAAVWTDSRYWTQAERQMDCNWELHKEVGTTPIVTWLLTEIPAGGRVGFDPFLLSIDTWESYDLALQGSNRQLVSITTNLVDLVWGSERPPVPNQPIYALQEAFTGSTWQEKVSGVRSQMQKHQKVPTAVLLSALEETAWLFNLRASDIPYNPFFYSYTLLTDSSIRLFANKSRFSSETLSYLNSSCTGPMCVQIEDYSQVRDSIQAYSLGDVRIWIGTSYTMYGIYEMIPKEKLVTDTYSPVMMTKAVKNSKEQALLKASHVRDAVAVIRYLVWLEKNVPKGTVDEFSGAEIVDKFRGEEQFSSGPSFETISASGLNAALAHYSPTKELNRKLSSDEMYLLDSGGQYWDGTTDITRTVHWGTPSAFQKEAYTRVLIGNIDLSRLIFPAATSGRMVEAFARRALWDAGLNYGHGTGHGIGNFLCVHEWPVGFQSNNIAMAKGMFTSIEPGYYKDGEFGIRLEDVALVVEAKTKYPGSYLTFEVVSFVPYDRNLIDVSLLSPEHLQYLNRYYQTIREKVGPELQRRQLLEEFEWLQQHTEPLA

[2] = biological target: T1, rat membrane-bound aminopeptidase P (Rattus norvegicus, UniProt Q99MA2); settings: cited from earlier work; for IC50: 0.5 mM arg = Pro-Pro in 0.1 M Hepes, pH 8.0, triplicate
T1 sequence (Q99MA2 23-650): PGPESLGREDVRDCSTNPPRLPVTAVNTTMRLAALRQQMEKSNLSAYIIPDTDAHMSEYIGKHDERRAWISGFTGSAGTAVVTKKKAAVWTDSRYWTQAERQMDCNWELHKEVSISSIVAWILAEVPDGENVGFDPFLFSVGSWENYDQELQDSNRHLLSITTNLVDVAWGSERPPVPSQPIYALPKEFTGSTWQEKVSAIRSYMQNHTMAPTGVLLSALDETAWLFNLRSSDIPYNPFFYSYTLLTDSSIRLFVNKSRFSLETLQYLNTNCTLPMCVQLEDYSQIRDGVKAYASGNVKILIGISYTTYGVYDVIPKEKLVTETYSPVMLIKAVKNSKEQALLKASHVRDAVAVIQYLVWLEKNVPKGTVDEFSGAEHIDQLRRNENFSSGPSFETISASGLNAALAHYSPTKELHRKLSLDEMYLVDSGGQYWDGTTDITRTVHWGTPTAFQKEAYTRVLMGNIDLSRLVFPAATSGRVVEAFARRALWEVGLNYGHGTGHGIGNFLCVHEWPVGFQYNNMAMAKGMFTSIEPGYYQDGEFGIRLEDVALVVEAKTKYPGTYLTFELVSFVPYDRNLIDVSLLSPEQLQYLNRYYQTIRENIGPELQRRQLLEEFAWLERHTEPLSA

[3] = biological target: bovine membrane-bound aminopeptidase P; settings: cited from earlier work; for IC50: 0.5 mM arg = Pro-Pro in 0.1 M Hepes, pH 8.0, triplicate
[4] = biological target: monkey membrane-bound aminopeptidase P; settings: 0.5 mM arg = Pro-Pro in 0.1 M Hepes, pH 8.0; triplicate; cited from earlier work
aminopeptidase P = assay: Binding of aminopeptidase P cDNA fragment phage to wells coated with […] peptide, with competitors; design: species or system human; settings: 1 mg free peptide; apstatin 10 μg/ml; IgG 10 μg/ml
Description: The peptide was synthesized in a Symphony synthesizer (Rainin Instruments; Emeryville, Calif.), cyclized, and purified by HPLC. The peptide was immobilized on a 96 well Reacti-Bind® polystyrene strip plate (Pierce; Rockford, Ill.). The wells were then treated three times×200 μl SuperBlock® blocking buffer (Pierce).
A human breast carcinoma cDNA library on T7 phage obtained from Novagen was amplified in a single step by infecting BLT 5615 bacteria. Phage suspension (100 μl, 10^9 pfu/ml) in PBS was incubated in the wells for one hour; the wells were then washed five times with 200 μl PBS and once with elution buffer (Novagen) to elute phage bound with low and intermediate affinity. Phage bound to the immobilized peptide were subsequently recovered by incubating BLT 5615 bacteria in the wells for 10 minutes at room temperature.

breast tissue [5] = assay: In vivo blocking of breast homing of phage by co-injected agents; settings: mice
Description: (§1) The number of pfu recovered from each organ is shown.
(§2) In vivo phage selection was performed as described previously with a few modifications. Briefly, mice were anesthetized with avertin and then injected intravenously with 10^9 plaque forming units (pfu) from the CX7C library. Seven minutes after the injection, the mice were perfused through the heart with 10 ml of phosphate buffered saline (PBS). Mammary tissue was then excised, weighed, and homogenized using a Medimachine (Dako, Denmark). The resulting single cells were spun down at 1500 rpm and washed five times with PBS. Phage adherent to the cells were rescued by infecting BL21 bacteria (Novagen), and the phage quantified by plaque assay.

breast tissue [6] = assay: In vivo phage homing: recovery of injected phage from tissues; design: species or system mice; settings: breast tissue as compared to control pancreatic tissue
Description: A CX7C library (10^9 plaque forming units) was injected into the tail vein of mice; after seven minutes, the mice were perfused through the heart, and phage rescued from breast tissue. The rescued phage were then amplified and re-injected in four additional consecutive rounds. The number of plaque forming units (pfu) recovered from breast tissue is shown (black bars). As a control, non-recombinant T7 phage were injected (white bars). In round five, the number of pfu of phage recovered from the pancreas also was determined (gray bar).
as §1
A phage display peptide library with the general structure of CX7C, where C is cysteine and X is any amino acid, was constructed in T7 phage essentially as follows. Briefly, complementary oligonucleotides that encoded the random peptide insert as NNK codons, and had 5′EcoRI and 3′HindIII overhangs, were annealed. The resulting double stranded DNA was phosphorylated with T4 polynucleotide kinase (Novagen; Madison, Wis.) and ligated into 1 ug of T7Select415-1b vector arms. The ligated product was directly added to 50 μl of packaging extract and incubated for two hours, yielding 10^8 pfu total recombinants. The recombinants were amplified in 500 ml of liquid culture. […] (Oxford, U.K.: Oxford University Press), 2001.
as §2

mitochondrial membranes = assay: Mitochondrial swelling assay; settings: at a concentration of 10 μM
Description: In one embodiment, the invention provides a conjugate in which the antimicrobial peptide portion promotes disruption of mitochondrial membranes when internalized by eukaryotic cells. In particular, such an antimicrobial peptide preferentially disrupts mitochondrial membranes as compared to eukaryotic membranes. Mitochondrial membranes, like bacterial membranes but in contrast to eukaryotic plasma membranes, have a high content of negatively charged phospholipids. An antimicrobial peptide can be assayed for activity in disrupting mitochondrial membranes using, for example, an assay for mitochondrial swelling (as described in Example I) or another assay well known in the art. […] An antimicrobial peptide that induces significant mitochondrial swelling at, for example, 50 μM, 40 μM, 30 μM, 20 μM, 10 μM, or less, is considered a peptide that promotes disruption of mitochondrial membranes.

Molecule | IC50 [2] [µM] | IC50 [3] [µM] | also measured
C[C@H](NC(=O)[C@@H]1CCCN1C(=O)C1CCCC1S)C(N)=O (single isomer, unassigned) [Compound 11] | 150 | 300 | IC50 [1]: 390 µM; IC50 [4]: 300 µM
C[C@H](NC(=O)[C@@H]1CCCN1C(=O)C1CCCCC1C(=O)NO)C(N)=O (single isomer, unassigned) [Compound 12] | 37 | 50 | 
C[C@H](NC(=O)[C@@H]1CCCN1C(=O)[C@@H]1CCCN1C(=O)[C@@H](O)[C@H](N)Cc1ccccc1)C(N)=O [Compound 1, apstatin] | 4.1 | 9.4 | Ki ([2]; Yoshimoto et al. 1994): 2.6 µM; Ki ([3]; in brackets in the IC50 cell of Table 2): 7.8 µM; effect on binding of aminopeptidase P encoding phage to insolubilized CPGPEGAGC peptide (aminopeptidase P): blocked
NC(=O)C1CCCN1C(=O)C1CCCN1C(=O)C(O)C(N)Cc1ccccc1 (stereo not shown) [Compound 3] | 390 | 1300 | 
CC(NC(=O)C1CCCN1C(=O)C1CCCN1C(=O)C(O)C(N)Cc1ccccc1)C(=O)NCCC(=O)NC(CS)C(N)=O (stereo not shown) [Compound 4] (X1-PPA[βAla]C-NH2; configuration not given here) | 0.66 |  | 
CC(C)C[C@@H](N)[C@H](O)C(=O)N1CCC[C@H]1C(=O)N[C@@H](C)C(N)=O [Compound 5] | 0.56 | 4.5 | 
CC(C)C[C@H](N)[C@@H](O)C(=O)N1CCC[C@H]1C(=O)N[C@@H](C)C(N)=O [Compound 6] | 0.31 | 2.1 | 
CC(C)C[C@@H](N)[C@@H](O)C(=O)N1CCC[C@H]1C(=O)N[C@@H](C)C(N)=O [Compound 7] | 19 | 50 | 
CC(C)C[C@H](N)[C@H](O)C(=O)N1CCC[C@H]1C(=O)N[C@@H](C)C(N)=O [Compound 8] | 100 | 470 | 
CC(NC(=O)C1CCCN1C(=O)C1CCCC1S)C(N)=O (stereo not shown) [Compound 10] | 3.4 |  | IC50 [1]: 29 µM
CPGPEGAGC (also: cyclized (mode not given here)) [breast homing cyclic peptide, synthesized, cyclized and purified by HPLC] |  |  | effect of coinjection on recovery of CPGPEGAGC phage from breast tissue (breast tissue [5]; 0.5 ml of 2 mg/ml free peptide coinjected): markedly reduced; effect on breast homing / recovery of CRSS phage (breast tissue [5]; anti-aminopeptidase P antiserum or 1 mg free peptide): no effect; effect on binding of aminopeptidase P encoding phage to insolubilized CPGPEGAGC peptide (aminopeptidase P): blocked; selective homing identified by in vivo panning (breast tissue [6]): selectively homing to breast tissue
CRSS [CRSS (SEQ ID NO: 3)] |  |  | selective homing identified by in vivo panning (breast tissue [6]): selectively homing to breast tissue
CRTS [CRTS (SEQ ID NO: 4)] |  |  | selective homing identified by in vivo panning (breast tissue [6]): selectively homing to breast tissue
D(KLAKLAK)2 |  |  | mitochondrial swelling (mitochondrial membranes): marked mitochondrial swelling
